Measured values reported in patent US8754075B2, “1,3-oxazines as BACE1 and/or BACE2 inhibitors” (Hoffmann-La Roche Inc., priority 2011, dated 2014).

What was measured:
BACE2 = BACE2 (Rattus norvegicus (Rat), UniProt Q6IE75); assay: Assay for BACE inhibition by measuring cellular TMEM27 cleavage; assay type: cell-based; conditions: INS-TMEM27 (INS1e rat cell line, inducible hTMEM27); shed TMEM27 by ELISA
From the text: Assay for BACE Inhibition by Measuring Cellular TMEM27 Cleavage:
The assay uses the principle of inhibition of human TMEM27 cleavage by endogenous cellular BACE2 in the Ins1e rat cell line and shedding from the cell surface into the culture medium, followed by detection in an ELISA assay Inhibition of BACE2 prevents the cleavage and shedding in a dose-dependent manner.
The stable cell line “INS-TMEM27” represents an INS1e-derived cell line with inducible expression (using the TetOn system) of full-length hTMEM27 in a doxycycline-dependent manner. The cells are cultured throughout the experiment in RPMI1640+Glutamax (Invitrogen) Penicillin/Streptomycin, 10% Fetal bovine serum, […], […], 100 micrograms/ml G418 and 100 microgram/ml hygromycin and are grown inadherent culture at 37° C. in a standard CO2 cell culture incubator.
INS-TMEM27 cells are seeded in 96-well plates. After 2 days in culture, BACE2 inhibitor is added in a range of concentrations as required by the assay and after a further two hours, doxycycline is added to a final concentration of 500 ng/ml. The cells are incubated for a further 46 hours and the supernatant harvested for detection of shed TMEM27.
An ELISA assay (using a pair of mouse anti-human-TMEM27 antibodies, raised against the extracellular domain of TMEM27) is used for detection of TMEM27 in the culture medium. An EC50 for BACE2 inhibition is calculated using the ELISA readout for each inhibitor concentration with standard curve-fitting software such as XLFit for the Excel spreadsheet program.

BACE1 = BACE1 (Homo sapiens (Human), UniProt P56817); assay: Cellular Aβ-lowering assay; assay type: cell-based; conditions: HEK293 cells stably expressing human APP wt (APP695); Aβ40 in supernatant by ELISA after 18-20 hrs
Method: Cellular Aβ-Lowering Assay: Human HEK293 cells which are stably transfected with a vector expressing a cDNA of the human APP wt gene (APP695) were used to assess the potency of the compounds in a cellular assay. The cells were seeded in 96-well microtiter plates in cell culture medium (Iscove, plus 10% (v/v) fetal bovine serum, glutamine, penicillin/streptomycin) to about 80% confluence and the compounds were added at a 10× concentration in 1/10 volume of medium without FCS containing 8% DMSO (final concentration of DMSO was kept at 0.8% v/v). After 18-20 hrs incubation at 37° C. and 5% CO2 in a humidified incubator the culture supernatant was harvested for the determination of Aβ40 concentrations. […] After blocking of non-specific binding sites with e.g. 1% BSA and washing, the culture supernatants were added in suitable dilutions together with a horseradish peroxidase-coupled Aβ detection antibody (e.g., antibody 4G8, Senetek, Maryland Heights, Mo.) and incubated for 5 to 7 hrs. Subsequently the wells of the microtiter plate were washed extensively with Tris-buffered saline containing 0.05% Tween 20 and the assay was developed with tetramethylbenzidine/H2O2 in citric acid buffer. After stopping the reaction with one volume […] the reaction was measured in an ELISA reader at 450 nm wavelength. The concentrations of Aβ in the culture supernatants were calculated from a standard curve obtained with known amounts of pure Aβ peptide.

BACE2, sequence (Q6IE75 63-514): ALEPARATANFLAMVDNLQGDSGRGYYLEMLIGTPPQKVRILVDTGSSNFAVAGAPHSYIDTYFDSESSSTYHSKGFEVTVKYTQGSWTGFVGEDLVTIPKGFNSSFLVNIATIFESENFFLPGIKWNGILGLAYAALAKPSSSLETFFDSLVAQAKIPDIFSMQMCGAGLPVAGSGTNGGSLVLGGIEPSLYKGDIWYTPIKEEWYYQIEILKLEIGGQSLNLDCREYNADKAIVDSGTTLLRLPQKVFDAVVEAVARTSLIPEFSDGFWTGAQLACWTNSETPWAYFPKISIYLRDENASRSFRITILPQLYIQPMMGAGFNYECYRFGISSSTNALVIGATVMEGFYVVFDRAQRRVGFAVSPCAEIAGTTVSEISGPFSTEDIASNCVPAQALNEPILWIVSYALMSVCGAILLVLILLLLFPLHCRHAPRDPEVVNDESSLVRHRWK
BACE1, sequence (P56817 46-501): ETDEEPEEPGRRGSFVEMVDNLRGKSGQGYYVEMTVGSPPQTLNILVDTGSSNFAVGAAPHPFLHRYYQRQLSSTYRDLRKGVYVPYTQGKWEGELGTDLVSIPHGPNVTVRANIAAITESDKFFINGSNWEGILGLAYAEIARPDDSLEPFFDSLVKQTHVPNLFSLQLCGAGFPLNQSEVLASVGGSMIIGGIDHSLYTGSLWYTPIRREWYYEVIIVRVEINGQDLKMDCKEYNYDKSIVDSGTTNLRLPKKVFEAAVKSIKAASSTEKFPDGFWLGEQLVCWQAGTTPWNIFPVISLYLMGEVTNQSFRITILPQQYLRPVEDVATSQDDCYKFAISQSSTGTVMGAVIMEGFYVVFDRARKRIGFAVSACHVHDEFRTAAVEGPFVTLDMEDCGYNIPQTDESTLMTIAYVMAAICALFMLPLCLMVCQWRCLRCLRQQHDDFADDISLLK

| Compound | IC50 (BACE2) [nM] | IC50 (BACE1) [nM] |
| --- | --- | --- |
| C[C@]1(c2cc(NC(=O)c3ccc(F)cn3)ccc2F)N=C(N)OC[C@@H]1OCC(F)(F)F [Example 46, 5-Fluoro-pyridine-2-carboxylic acid {3-[(4R,5R)-2-amino-4-methyl-5-(2,2,2-trifluoro-ethoxy)-5,6-dihydro-4H-[1,3]oxazin-4-yl]-4-fluoro-phenyl}-amide] | 65 | 2 |
| C[C@]1(c2cc(NC(=O)c3ccc(C#N)cn3)ccc2F)N=C(N)OC[C@@H]1OCC(F)(F)F [Example 47, 5-Cyano-pyridine-2-carboxylic acid {3-[(4R,5R)-2-amino-4-methyl-5-(2,2,2-trifluoro-ethoxy)-5,6-dihydro-4H-[1,3]oxazin-4-yl]-4-fluoro-phenyl}-amide] | 268 | 1 |
| C[C@]1(c2cc(NC(=O)c3ncc(Cl)cc3Cl)ccc2F)N=C(N)OC[C@@H]1OCC(F)(F)F [Example 48, 3,5-Dichloro-pyridine-2-carboxylic acid {3-[(4R,5R)-2-amino-4-methyl-5-(2,2,2-trifluoro-ethoxy)-5,6-dihydro-4H-[1,3]oxazin-4-yl]-4-fluoro-phenyl}-amide] | 67 | 3 |
